# Assay results: US20020176842A1, “Extended release of active ingredients” (priority 2001, published 2002)
# Experiment: Spectrophotometric absorption test method (uptake of drug by unloaded resin)
# Assay type: physicochemical
# Details: within 5 hours; 55 ml of 98 mg/l indomethacin in simulated intestinal fluid, 43 mg Cholestyramine USP, 318 nm
# Procedure: It is important that the drug be absorbed by the resin. The following test method is useful in determining drug absorption by the resin. In this illustration of the test method, indomethacin and cholestyramine are used. Equipment was set up as described in Example 1, except that the effluent from the uv cell was directed back to the inlet of the pump to produce a circulation flow. 55 ml of a 98 mg/1 solution of indomethacin in simulated intestinal fluid, prepared as described below, was charged to the filtration cell and the pump and stirrer started. Flow rate was approximately 6 ml/min. Absorbance readings were taken on the uv spectrophotometer at a wavelength of 318nm until a steady baseline was obtained. 43 mg of Cholestyramine USP that had been screened to remove particles <75 microns was then added to the cell. Absorbance readings were then taken at frequent intervals to observe the uptake of indomethacin. The absorbance readings were used to calculate the indomethacin concentration from a suitably determined calibration curve and to calculate the total amount of indomethacin absorbed by the resin. In the case of the indomethacin, 92% was absorbed within 5 hours.
# Preparation of simulated intestinal fluid: a solution of 6.8 g/l potassium dihydrogen phosphate in deionized water was prepared and sufficient 0.2 mol/1 sodium hydroxide s added to achieve a pH of 7.5.
structure (smiles),measurement,value
COc1ccc2c(c1)c(CC(=O)O)c(C)n2C(=O)c1ccc(Cl)cc1 [indomethacin],indomethacin absorbed by the resin,92%
